Reference: ChEMBL document CHEMBL5291721, “A preclinical secondary pharmacology resource illuminates target-adverse drug reaction associations of marketed drugs” (Nat Commun, 2023)

Experiments:
[1] = target: T1, Alpha-2A adrenergic receptor (Homo sapiens, UniProt P08913); format: functional, cell-based
T1 sequence (P08913 whole entry): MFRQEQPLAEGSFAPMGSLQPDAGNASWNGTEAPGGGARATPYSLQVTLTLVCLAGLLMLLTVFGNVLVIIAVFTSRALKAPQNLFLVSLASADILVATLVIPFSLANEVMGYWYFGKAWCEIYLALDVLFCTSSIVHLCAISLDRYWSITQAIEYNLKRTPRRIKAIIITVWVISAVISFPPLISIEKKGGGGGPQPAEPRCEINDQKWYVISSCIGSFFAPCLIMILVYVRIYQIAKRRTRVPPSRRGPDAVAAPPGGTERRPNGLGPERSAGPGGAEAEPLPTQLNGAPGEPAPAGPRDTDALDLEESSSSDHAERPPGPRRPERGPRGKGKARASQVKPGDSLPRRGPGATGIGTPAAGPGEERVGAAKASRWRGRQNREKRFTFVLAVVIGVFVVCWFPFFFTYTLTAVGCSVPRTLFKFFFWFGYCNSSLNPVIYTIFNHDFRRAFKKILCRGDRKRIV

[2] = target: T2, Gastrin/cholecystokinin type B receptor (Homo sapiens, UniProt P32239)
T2 sequence (P32239 whole entry): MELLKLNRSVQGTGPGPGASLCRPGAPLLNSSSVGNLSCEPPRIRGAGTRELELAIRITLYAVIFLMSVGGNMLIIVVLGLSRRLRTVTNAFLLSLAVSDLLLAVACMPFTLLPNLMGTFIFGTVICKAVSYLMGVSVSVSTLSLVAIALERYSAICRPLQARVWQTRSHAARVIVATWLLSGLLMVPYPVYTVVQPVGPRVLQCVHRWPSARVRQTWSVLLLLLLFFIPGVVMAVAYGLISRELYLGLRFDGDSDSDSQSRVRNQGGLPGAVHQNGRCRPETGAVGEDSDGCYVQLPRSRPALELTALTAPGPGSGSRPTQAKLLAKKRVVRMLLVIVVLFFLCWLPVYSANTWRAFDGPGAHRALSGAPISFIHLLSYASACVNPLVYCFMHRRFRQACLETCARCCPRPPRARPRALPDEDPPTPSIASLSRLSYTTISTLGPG

[3] = target: D(1A) dopamine receptor (Homo sapiens, UniProt P21728); format: functional, cell-based
[4] = target: Gamma-aminobutyric acid receptor subunit alpha-1 (Rattus norvegicus, UniProt P62813); format: functional
[5] = target: Melanocortin receptor 3 (Homo sapiens, UniProt P41968)
[6] = target: T3, Glucocorticoid receptor (Homo sapiens, UniProt P04150)
T3 sequence (P04150 whole entry): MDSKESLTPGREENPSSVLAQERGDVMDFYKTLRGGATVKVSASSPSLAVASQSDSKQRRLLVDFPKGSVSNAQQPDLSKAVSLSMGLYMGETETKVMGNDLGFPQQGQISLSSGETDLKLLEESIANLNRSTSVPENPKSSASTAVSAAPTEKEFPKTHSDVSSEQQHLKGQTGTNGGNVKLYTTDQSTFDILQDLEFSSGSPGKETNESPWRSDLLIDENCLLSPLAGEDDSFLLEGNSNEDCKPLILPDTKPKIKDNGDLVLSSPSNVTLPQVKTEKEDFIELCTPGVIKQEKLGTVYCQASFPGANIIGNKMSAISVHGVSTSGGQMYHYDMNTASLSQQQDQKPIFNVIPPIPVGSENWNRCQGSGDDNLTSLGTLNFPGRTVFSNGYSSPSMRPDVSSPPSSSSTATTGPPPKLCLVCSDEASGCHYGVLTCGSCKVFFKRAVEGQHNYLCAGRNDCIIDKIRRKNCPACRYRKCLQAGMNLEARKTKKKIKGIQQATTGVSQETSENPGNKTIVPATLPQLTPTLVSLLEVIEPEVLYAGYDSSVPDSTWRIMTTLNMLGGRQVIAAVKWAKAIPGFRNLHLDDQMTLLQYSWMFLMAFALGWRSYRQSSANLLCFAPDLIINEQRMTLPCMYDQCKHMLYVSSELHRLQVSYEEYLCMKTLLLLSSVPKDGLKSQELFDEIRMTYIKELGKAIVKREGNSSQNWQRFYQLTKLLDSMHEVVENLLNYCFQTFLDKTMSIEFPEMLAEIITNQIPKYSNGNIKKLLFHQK

[7] = target: 3',5'-cyclic-AMP phosphodiesterase 4D (Homo sapiens, UniProt Q08499); format: functional
[8] = target: T4, Progesterone receptor (Homo sapiens, UniProt P06401); format: functional
T4 sequence (P06401 whole entry): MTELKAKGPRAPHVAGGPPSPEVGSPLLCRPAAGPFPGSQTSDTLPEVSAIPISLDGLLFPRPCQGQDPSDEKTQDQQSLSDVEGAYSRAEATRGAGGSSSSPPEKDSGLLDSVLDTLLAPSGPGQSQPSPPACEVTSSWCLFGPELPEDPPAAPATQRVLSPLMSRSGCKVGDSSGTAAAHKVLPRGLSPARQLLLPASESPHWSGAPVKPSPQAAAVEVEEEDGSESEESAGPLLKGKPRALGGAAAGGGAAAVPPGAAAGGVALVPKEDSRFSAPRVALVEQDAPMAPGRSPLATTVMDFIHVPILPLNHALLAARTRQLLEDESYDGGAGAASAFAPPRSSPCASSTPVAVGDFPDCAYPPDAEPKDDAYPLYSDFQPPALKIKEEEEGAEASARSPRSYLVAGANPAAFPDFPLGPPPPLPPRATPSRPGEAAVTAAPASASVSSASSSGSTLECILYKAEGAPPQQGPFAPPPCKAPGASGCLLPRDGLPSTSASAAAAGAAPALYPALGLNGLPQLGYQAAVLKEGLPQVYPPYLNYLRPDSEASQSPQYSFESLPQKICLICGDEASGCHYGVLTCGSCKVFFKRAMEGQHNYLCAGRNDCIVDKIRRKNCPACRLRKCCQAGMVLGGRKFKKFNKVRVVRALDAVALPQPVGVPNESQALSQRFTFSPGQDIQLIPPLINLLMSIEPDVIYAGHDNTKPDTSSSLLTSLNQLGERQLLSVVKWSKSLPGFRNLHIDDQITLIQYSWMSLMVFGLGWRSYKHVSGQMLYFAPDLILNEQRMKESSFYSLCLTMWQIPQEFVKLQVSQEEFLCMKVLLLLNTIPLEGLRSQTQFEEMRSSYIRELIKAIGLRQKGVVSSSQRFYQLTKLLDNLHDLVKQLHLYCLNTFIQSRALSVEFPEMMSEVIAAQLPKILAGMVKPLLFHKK

[9] = target: Sodium-dependent dopamine transporter (Homo sapiens, UniProt Q01959)
[10] = target: Sodium-dependent serotonin transporter (Homo sapiens, UniProt P31645)
Also: assay procedure not described here.

Chain of Melanocortin receptor 3 (P41968 whole entry): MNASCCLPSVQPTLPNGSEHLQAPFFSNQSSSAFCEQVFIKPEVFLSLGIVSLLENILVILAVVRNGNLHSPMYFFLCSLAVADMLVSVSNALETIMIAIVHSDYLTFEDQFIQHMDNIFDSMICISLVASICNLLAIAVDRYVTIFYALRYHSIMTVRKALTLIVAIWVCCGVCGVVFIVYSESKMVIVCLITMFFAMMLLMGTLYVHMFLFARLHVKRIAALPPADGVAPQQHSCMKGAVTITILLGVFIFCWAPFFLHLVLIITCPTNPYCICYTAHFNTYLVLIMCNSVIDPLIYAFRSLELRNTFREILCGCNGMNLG
Chain of Gamma-aminobutyric acid receptor subunit alpha-1 (P62813 whole entry): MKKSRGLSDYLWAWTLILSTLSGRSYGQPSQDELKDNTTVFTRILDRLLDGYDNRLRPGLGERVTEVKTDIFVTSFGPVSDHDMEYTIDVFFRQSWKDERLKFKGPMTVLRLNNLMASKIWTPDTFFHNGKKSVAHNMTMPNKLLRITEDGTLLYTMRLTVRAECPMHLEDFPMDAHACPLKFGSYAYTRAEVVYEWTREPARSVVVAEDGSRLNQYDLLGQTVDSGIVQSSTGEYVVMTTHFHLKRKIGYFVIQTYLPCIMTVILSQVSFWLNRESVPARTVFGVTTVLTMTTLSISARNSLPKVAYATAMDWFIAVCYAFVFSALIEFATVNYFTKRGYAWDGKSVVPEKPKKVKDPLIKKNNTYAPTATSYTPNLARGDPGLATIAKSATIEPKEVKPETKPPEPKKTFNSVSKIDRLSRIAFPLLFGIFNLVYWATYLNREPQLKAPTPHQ
Chain of Sodium-dependent dopamine transporter (Q01959 whole entry): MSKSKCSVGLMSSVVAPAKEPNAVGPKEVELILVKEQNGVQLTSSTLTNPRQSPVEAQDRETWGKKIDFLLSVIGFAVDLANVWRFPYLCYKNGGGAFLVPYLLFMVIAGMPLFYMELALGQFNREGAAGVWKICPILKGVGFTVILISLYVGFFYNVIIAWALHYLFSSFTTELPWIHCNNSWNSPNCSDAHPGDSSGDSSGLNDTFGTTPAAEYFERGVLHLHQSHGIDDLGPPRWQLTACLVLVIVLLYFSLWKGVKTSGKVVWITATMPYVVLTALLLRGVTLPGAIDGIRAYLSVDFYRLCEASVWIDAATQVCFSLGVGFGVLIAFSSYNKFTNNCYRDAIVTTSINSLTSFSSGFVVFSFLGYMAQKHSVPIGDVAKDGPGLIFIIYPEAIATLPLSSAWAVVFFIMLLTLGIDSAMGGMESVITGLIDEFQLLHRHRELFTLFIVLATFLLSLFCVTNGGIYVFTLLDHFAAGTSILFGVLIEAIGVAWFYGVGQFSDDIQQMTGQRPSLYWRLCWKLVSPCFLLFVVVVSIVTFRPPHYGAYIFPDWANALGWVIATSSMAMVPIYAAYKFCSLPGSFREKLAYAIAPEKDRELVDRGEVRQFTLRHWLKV
Chain of 3',5'-cyclic-AMP phosphodiesterase 4D (Q08499 whole entry): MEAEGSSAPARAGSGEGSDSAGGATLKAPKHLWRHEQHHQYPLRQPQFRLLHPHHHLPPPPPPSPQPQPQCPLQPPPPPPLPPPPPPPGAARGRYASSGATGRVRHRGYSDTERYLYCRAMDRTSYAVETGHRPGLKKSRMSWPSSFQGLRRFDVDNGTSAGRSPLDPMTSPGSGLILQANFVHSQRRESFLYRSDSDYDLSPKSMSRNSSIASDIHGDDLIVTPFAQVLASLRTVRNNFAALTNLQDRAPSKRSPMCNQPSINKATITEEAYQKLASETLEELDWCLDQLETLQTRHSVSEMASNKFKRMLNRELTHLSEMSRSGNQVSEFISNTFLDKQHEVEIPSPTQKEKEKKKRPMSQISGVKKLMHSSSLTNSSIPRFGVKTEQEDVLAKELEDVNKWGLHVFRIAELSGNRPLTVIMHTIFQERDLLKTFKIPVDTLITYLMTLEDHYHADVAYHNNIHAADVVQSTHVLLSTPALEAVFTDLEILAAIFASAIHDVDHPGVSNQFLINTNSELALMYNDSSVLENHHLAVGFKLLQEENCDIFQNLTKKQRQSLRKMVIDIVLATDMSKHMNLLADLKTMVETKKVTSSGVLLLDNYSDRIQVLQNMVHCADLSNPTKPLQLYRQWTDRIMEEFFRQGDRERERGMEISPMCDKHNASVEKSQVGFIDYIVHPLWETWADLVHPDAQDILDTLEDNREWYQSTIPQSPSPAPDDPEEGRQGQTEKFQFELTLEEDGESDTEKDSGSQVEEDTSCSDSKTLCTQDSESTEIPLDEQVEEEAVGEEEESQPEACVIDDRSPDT
Chain of D(1A) dopamine receptor (P21728 whole entry): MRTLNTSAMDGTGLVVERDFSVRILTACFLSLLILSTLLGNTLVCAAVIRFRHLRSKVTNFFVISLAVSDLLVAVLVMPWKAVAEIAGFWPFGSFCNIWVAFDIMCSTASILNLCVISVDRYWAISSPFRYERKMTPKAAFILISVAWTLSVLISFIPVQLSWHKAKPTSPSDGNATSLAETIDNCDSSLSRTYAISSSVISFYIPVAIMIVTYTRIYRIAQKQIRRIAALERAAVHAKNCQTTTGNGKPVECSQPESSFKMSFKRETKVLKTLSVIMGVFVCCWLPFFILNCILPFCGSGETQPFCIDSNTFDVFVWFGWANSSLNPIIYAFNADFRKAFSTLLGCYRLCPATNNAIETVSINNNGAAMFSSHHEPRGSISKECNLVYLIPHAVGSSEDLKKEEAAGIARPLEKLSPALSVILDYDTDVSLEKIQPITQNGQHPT
Chain of Sodium-dependent serotonin transporter (P31645 whole entry): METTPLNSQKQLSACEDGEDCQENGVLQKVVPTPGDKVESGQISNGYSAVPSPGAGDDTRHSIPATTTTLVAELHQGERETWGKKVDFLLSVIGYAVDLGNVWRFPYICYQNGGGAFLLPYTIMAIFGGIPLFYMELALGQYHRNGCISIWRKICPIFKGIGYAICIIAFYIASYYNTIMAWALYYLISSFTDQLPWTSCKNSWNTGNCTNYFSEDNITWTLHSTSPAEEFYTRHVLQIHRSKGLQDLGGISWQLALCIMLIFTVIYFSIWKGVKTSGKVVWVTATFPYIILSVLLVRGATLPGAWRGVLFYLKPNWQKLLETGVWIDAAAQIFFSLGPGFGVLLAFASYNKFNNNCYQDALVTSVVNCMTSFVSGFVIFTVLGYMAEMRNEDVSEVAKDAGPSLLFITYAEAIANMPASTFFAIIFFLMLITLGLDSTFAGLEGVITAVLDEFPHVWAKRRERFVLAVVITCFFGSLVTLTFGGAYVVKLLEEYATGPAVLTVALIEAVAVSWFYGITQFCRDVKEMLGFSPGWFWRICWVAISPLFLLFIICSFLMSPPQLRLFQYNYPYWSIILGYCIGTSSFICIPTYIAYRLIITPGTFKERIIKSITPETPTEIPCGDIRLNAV

C[C@H]1C[C@@H]2[C@H]([C@@H](O)C[C@@]3(C)[C@H]2CC[C@]3(O)C(=O)COC(=O)CCC(=O)O)[C@@]2(C)C=CC(=O)C=C12 [METHYLPREDNISOLONE HEMISUCCINATE]
AC50 [1]: > 30 µM | AC50 [2]: > 30 µM | AC50 [3]: > 30 µM | AC50 [4]: > 30 µM | AC50 [5]: > 30 µM | AC50 [6]: 0.67 µM | AC50 [7]: > 30 µM | AC50 [8]: > 30 µM | AC50 [9]: > 30 µM | AC50 [10]: > 30 µM

CCCCC(C)(O)C/C=C/[C@H]1[C@H](O)CC(=O)[C@@H]1CCCCCCC(=O)OC (stereo not given in full) [MISOPROSTOL]
AC50 [1]: > 30 µM | AC50 [2]: > 30 µM | AC50 [3]: > 30 µM | AC50 [4]: > 30 µM | AC50 [5]: > 30 µM | AC50 [6]: > 30 µM | AC50 [7]: > 30 µM | AC50 [8]: 27 µM | AC50 [9]: > 30 µM | AC50 [10]: > 30 µM

O=C(OCCN1CCOCC1)c1cccnc1Nc1cccc(C(F)(F)F)c1 [MORNIFLUMATE]
AC50 [1]: > 30 µM | AC50 [2]: > 30 µM | AC50 [3]: > 30 µM | AC50 [4]: > 30 µM | AC50 [5]: > 30 µM | AC50 [6]: > 30 µM | AC50 [7]: 4.3 µM | AC50 [8]: > 30 µM | AC50 [9]: 12 µM | AC50 [10]: > 30 µM

CCCCCCC(C)(C)c1cc(O)c2c(c1)OC(C)(C)C1CCC(=O)CC21 (stereo not given) [NABILONE]
AC50 [1]: > 30 µM | AC50 [2]: > 30 µM | AC50 [3]: > 30 µM | AC50 [4]: > 30 µM | AC50 [5]: > 30 µM | AC50 [6]: > 30 µM | AC50 [7]: > 30 µM | AC50 [8]: > 30 µM | AC50 [9]: 16 µM | AC50 [10]: > 30 µM

CCCCCCCCOc1ccccc1C(=O)Nc1ccc(C(=O)OCC[N+](C)(CC)CC)cc1 [OTILONIUM BROMIDE]
AC50 [1]: > 10 µM | AC50 [2]: > 1 µM | AC50 [3]: > 30 µM | AC50 [4]: > 30 µM | AC50 [5]: 5.1 µM | AC50 [6]: 11 µM | AC50 [7]: 2.5 µM | AC50 [8]: 7 µM | AC50 [9]: 4.4 µM | AC50 [10]: 0.91 µM

Cc1c(Cl)cccc1Nc1ccccc1C(=O)O [TOLFENAMIC ACID]
AC50 [1]: > 30 µM | AC50 [2]: > 10 µM | AC50 [3]: > 30 µM | AC50 [4]: > 30 µM | AC50 [5]: > 30 µM | AC50 [6]: > 30 µM | AC50 [7]: > 30 µM | AC50 [8]: 26 µM | AC50 [9]: > 30 µM | AC50 [10]: > 30 µM
